Data: patent US20240408059A1, “METHOD OF TREATING ADDICTION” (Anebulo Pharmaceuticals, Inc., priority 2021, published 2024)
Values belong to the compound of their own block, whether it stands above or below them.

Legend:
[1] = biological target: T1, CYP3A4 (Homo sapiens, UniProt P08684); settings: CYP3A4 inhibitors increase the concentrations of both drugs; cited from earlier work
[2] = biological target: T1, CYP3A4; assay: Drug-drug interactions, CYP3A4 inhibition; format: in vitro ADME
Description: (§1) In steady state, the patient has 24 h coverage despite convenient once daily dosing. […] Both antidepressants and drug withdrawal can decrease the seizure threshold.

[3] = Seizure liability; settings: in vivo
Description: as §1

[4] = Compound 2 in treatment of cannabis use disorder (CUD) / cannabis withdrawal; format: in vivo, human
Text: Compound 2 is used in a combination treatment for cannabis use disorder (CUD). Combinations include use of antidepressants (specifically sedating antidepressants, such as mirtazapine or trazodone), antipsychotics, CB1 agonists such as THC and allosteric CB1 modulators such as Cannabidiol. These agents improve the safety profile of a CB1 inhibitor as described herein, such as compound 2, and lessen the burden of the withdrawal symptoms.
The benefits of a combination therapy comprising compound 2 and a sedating antidepressant, such as Mirtazapine or Trazodone, are outline in Table 1 below.
Daily doses such as between about 5 mg and about 100 mg of Compound 2 are efficacious in CUD. Doses of 1-50 mg or 20 to 30 mg may also be used. Compound 2 is also evaluated in combination with daily doses of Mirtazapine at about 15 mg to about 45 mg, or daily doses of Trazodone at about 50 mg to about 400 mg. Mirtazapine is given at bedtime. In another embodiment, Compound 2 and Mirtazapine are formulated and administered as a single oral dosage form, such as a tablet or a capsule.

[5] = Half-life of Compound 2 (once daily dosing, steady state); format: in vivo; settings: accumulation enables slow onset; 24 h coverage in steady state with once daily dosing
Description: as §1

[6] = patients taking the drug long term; vs 5%; cited from earlier work

T1 sequence (P08684 whole entry): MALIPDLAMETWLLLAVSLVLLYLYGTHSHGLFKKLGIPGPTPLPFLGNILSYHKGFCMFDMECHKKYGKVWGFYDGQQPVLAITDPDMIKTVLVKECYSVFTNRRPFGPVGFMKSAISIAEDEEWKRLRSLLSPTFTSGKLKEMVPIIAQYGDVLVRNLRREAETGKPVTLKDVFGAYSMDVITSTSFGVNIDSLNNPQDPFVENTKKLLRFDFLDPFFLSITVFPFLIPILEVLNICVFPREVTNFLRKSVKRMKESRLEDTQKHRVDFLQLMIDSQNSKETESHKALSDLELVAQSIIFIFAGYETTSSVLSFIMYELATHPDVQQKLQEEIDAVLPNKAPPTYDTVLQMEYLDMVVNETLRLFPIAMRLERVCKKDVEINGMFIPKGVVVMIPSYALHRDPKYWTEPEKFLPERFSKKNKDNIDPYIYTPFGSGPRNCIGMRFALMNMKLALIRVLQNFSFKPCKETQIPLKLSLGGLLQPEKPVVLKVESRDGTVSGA

Structure (SMILES): CN1CCN2c3ncccc3Cc3ccccc3C2C1 (stereo not shown) [Mirtazapine]
metabolizing enzyme [1]: metabolized by CYP3A4

Structure (SMILES): O=c1n(CCCN2CCN(c3cccc(Cl)c3)CC2)nc2ccccn12 [Trazodone]
metabolizing enzyme [1]: metabolized by CYP3A4

Effect of Compound 2 on anxiety (withdrawal symptoms) ([4]; cannabis withdrawal): Increases anxiety
Effect of Compound 2 on mood ([4]; cannabis withdrawal): Depressed mood
Effect of Compound 2 on sleep problems (withdrawal symptoms) ([4]; cannabis withdrawal): Increases sleep
Effect of Compound 2 on weight ([4]; cannabis withdrawal): Weight loss
half-life [5]: Long half-life
Structure (SMILES): CC(C)(C)NC(=O)N1CC(O[C@H](c2ccc(Cl)cc2)c2ccccc2C(F)(F)F)C1 [Compound 2, (R)—N-(tert-butyl)-3-((4-chlorophenyl)(2-(trifluoromethyl)phenyl)methoxy)azetidine-1-carboxamide]
drug-drug interactions, particularly CYP3A4 inhibition [2]: Lack of drug-drug interactions, particularly CYP3A4 inhibition
seizure liability [3]: Lack of seizure liability
Effect of Compound 2 on high probability of THC use/relapse: anti-addictive properties ([4]; cannabis withdrawal): has anti-addictive
Effect of Compound 2 on high probability of THC use/relapse: getting high ([4]; cannabis withdrawal): Blocks getting high +
efficacy in CUD ([4]; daily doses between about 5 mg and about 100 mg): efficacious

Structure (SMILES): Cc1c(C(=O)NN2CCCCC2)nn(-c2ccc(Cl)cc2Cl)c1-c1ccc(Cl)cc1 [Rimonabant]
incidence of depression [6]: 9%
